Patent US20210179680A1, “POLYPEPTIDE, DERIVATIVES THEREOF, AND APPLICATION THEREOF IN PREPARATION OF DRUGS HAVING RESISTANCE TO PULMONARY FIBROSIS” (priority 2016, published 2021)
Bridge positions count the residues as written; N and C are the ends. Square brackets hold non-standard residues; d marks the D form. Peptide text beside a SMILES is read from it. S5 = C=CCCC[C@](C)(N)C(=O)O

How the values were obtained:
[1] = tested on: mice with bleomycin-induced pulmonary fibrosis; test: Lung weight index in mice with pulmonary fibrosis; format: in vivo, C57BL/6 mice; settings: Table 3 groups, 2 mg/kg i.p.; after 28 days; lung weight (mg) divided by body weight (g)
Procedure: (§1) Male C57BL/6 mice were fasted overnight, then anesthetized with 45 mg/kg sodium pentobarbital by injection intraperitoneally (i.p.), and intratracheally injected with bleomycin at a dose of 3 U/kg. The specific operation steps are as follows: cut the neck skin of the mouse with as little trauma as possible, expose the trachea with the assistance of elbow ophthalmic forceps, puncture the trachea and inject about 50 μL of bleomycin into the trachea with a microsyringe, rotate the mouse quickly and stand it upright for 5 minutes in order to make bleomycin evenly enter the left and right lobe, thereby constructing an animal model. The whole operation was performed at a surgical table at about […]. Mice in the sham operation group were intratracheally injected with an equal amount of physiological saline for injection.
Pulmonary fibrosis model was prepared according to the method described in Example 2, and administered in groups according to Table 3. After 28 days, the lungs of the mice were finely stripped and weighed, and a lung weight index was obtained from dividing the lung weight (mg) by the body weight (g) of the mice. […] In FIG. 7, “##” represents that P value is less than 0.01 when the lung weight index of administration group was compared with that of the sham operation group; “*” represents that P value is less than 0.05 when the lung weight index of administration group was compared with that of the bleomycin group; “**” represents that P value is less than 0.01 when the lung weight index of administration group was compared with that of bleomycin group.
Pulmonary fibrosis models were made according to the method described in Example 2 and administered in groups according to Table 9. After 28 days, the lungs of the mice were finely stripped and weighed, and the lung weight (mg) was divided by the body weight (g) of the mice to obtain a lung weight index. […] In FIG. 13, “##” represents that P value is less than 0.01 when the lung weight index of the administration groups were compared with that of the sham operation group; “*” represents that P value is less than 0.05 and “**” represents that P value is less than 0.01 when the lung weight index of the administration groups were compared with bleomycin group.

[2] = tested on: mice with bleomycin-induced pulmonary fibrosis; test: Pulmonary function (Flexivent) in mice with pulmonary fibrosis; format: in vivo, C57BL/6 mice; settings: Table 3 groups, 2 mg/kg i.p.; for Dynamic compliance (mL/cmH2O) / Dynamic elasticity (cmH2O./mL) / Dynamic resistance (cmH2O · s/Ml) / Inspiratory capacity: 28th day after model construction; for pulmonary function of mice with pulmonary fibrosis (in words): FIG. 11
Procedure: as §1
(§2) Pulmonary function is a gold indicator for clinical detection of pulmonary fibrosis in patients. The decline of lung function is generally accompanied by an aggravation of fibrosis, while the improvement of lung function generally represents the recovery of lung tissue structure. Pulmonary fibrosis models were prepared according to the method described in Example 2 and administered in groups according to Table 3. On the 28th day after the construction of the animal model, the mice were anesthetized with sodium pentobarbital (45 mg/kg, i.p.). Lung function was tested by the Flexivent Small-animal respiratory mechanics and the testing methods were TLC and SnapShots (Testing method refers to Lv X, Wang X, Li K, et al. Rupatadine Protects against Pulmonary Fibrosis by Attenuating PAF-Mediated Senescence in Rodents [J]. PloS one, 2013, 8(7): e68631).
as §2, with “lung function also generally represents” for “lung function generally represents”, “to Table 9. 28 days later, the mice” for “to Table 3. On the 28th day after the construction of the animal model, the mice”, “Senescence in Rodents[J]. PloS one,” for “Senescence in Rodents [J]. PloS one,”

Row | Structure (SMILES) | Lung weight index [1] | Dynamic compliance (mL/cmH2O) [2] | Dynamic elasticity (cmH2O./mL) [2] | Dynamic resistance (cmH2O · s/Ml) [2] | Inspiratory capacity [2] | pulmonary function of mice with pulmonary fibrosis (in words) [2]
1 | CSCC[C@H](NC(=O)[C@H](CC(C)C)NC(=O)[C@@H](N)Cc1c[nH]cn1)C(=O)N[C@@H](C)C(=O)N[C@@H](CS)C(=O)N[C@@H](Cc1ccccc1)C(=O)N[C@H](C(=O)N[C@@H](CS)C(=O)N[C@@H](C)C(=O)N[C@@H](CCCCN)C(=O)N[C@@H](CCCCN)C(=O)N[C@@H](CC(C)C)C(=O)N[C@@H](CCCCN)C(=O)N[C@@H](CCCCN)C(=O)N[C@@H](CCCNC(=N)N)C(=O)O)[C@@H](C)O [MR2] (H-HLMACFTCAKKLKKR-OH; N-terminus and C-terminus assumed) | 11.4625 | 0.22 mL/cmH2O | 68.83 cmH2O./mL | 1.775 cmH2O · s/Ml | 0.456 mL | improved
2 | CSCC[C@@H]1NC(=O)[C@H](CC(C)C)NC(=O)[C@@](C)(N)CCCC=CCCC[C@@](C)(C(=O)N[C@@H](Cc2ccccc2)C(=O)N[C@H](C(=O)N[C@@H](CS)C(=O)N[C@@H](C)C(=O)N[C@@H](CCCCN)C(=O)N[C@@H](CCCCN)C(=O)N[C@@H](CC(C)C)C(=O)N[C@@H](CCCCN)C(=O)N[C@@H](CCCCN)C(=O)N[C@@H](CCCNC(=N)N)C(=O)O)[C@@H](C)O)NC(=O)[C@H](C)NC1=O [S1, S5-Leu-Met-Ala-S5-Phe-Thr-Cys-Ala-Lys-Lys-Leu-Lys-Lys-Arg] (H-[S5]LMA[S5]FTCAKKLKKR-OH; staple 1-5; N-terminus and C-terminus assumed) | 8.675 | 0.2883 mL/cmH2O | 52.17 cmH2O./mL | 1.15 cmH2O · s/Ml | 0.71 mL | improved
3 | CSCC[C@@H]1NC(=O)[C@@](C)(NC(=O)[C@@H](N)Cc2c[nH]cn2)CCCC=CCCC[C@@](C)(C(=O)N[C@H](C(=O)N[C@@H](CS)C(=O)N[C@@H](C)C(=O)N[C@@H](CCCCN)C(=O)N[C@@H](CCCCN)C(=O)N[C@@H](CC(C)C)C(=O)N[C@@H](CCCCN)C(=O)N[C@@H](CCCCN)C(=O)N[C@@H](CCCNC(=N)N)C(=O)O)[C@@H](C)O)NC(=O)[C@H](CS)NC(=O)[C@H](C)NC1=O [S2, His-S5-Met-Ala-Cys-S5-Thr-Cys-Ala-Lys-Lys-Leu-Lys-Lys-Arg] (H-H[S5]MAC[S5]TCAKKLKKR-OH; staple 2-6; N-terminus and C-terminus assumed) | 9.35 | 0.2683 mL/cmH2O | 55.33 cmH2O./mL | 1.25 cmH2O · s/Ml | 0.688 mL | improved
4 | CC(C)C[C@H](NC(=O)[C@H](CCCCN)NC(=O)[C@H](CCCCN)NC(=O)[C@H](C)NC(=O)[C@H](CS)NC(=O)[C@]1(C)CCCC=CCCC[C@](C)(NC(=O)[C@H](CC(C)C)NC(=O)[C@@H](N)Cc2c[nH]cn2)C(=O)N[C@@H](C)C(=O)N[C@@H](CS)C(=O)N[C@@H](Cc2ccccc2)C(=O)N1)C(=O)N[C@@H](CCCCN)C(=O)N[C@@H](CCCCN)C(=O)N[C@@H](CCCNC(=N)N)C(=O)O [S3, His-Leu-S5-Ala-Cys-Phe-S5-Cys-Ala-Lys-Lys-Leu-Lys-Lys-Arg] (H-HL[S5]ACF[S5]CAKKLKKR-OH; staple 3-7; N-terminus and C-terminus assumed) | 8.8 | 0.255 mL/cmH2O | 47 cmH2O./mL | 1.143 cmH2O · s/Ml | 0.646 mL | improved
5 | CSCC[C@H](NC(=O)[C@H](CC(C)C)NC(=O)[C@@H](N)Cc1c[nH]cn1)C(=O)N[C@@]1(C)CCCC=CCCC[C@@](C)(C(=O)N[C@@H](C)C(=O)N[C@@H](CCCCN)C(=O)N[C@@H](CCCCN)C(=O)N[C@@H](CC(C)C)C(=O)N[C@@H](CCCCN)C(=O)N[C@@H](CCCCN)C(=O)N[C@@H](CCCNC(=N)N)C(=O)O)NC(=O)[C@H]([C@@H](C)O)NC(=O)[C@H](Cc2ccccc2)NC(=O)[C@H](CS)NC1=O [S4, His-Leu-Met-S5-Cys-Phe-Thr-S5-Ala-Lys-Lys-Leu-Lys-Lys-Arg] (H-HLM[S5]CFT[S5]AKKLKKR-OH; staple 4-8; N-terminus and C-terminus assumed) | 8.925 | 0.2617 mL/cmH2O | 59.33 cmH2O./mL | 1.267 cmH2O · s/Ml | 0.564 mL | improved
6 | CSCC[C@H](NC(=O)[C@H](CC(C)C)NC(=O)[C@@H](N)Cc1c[nH]cn1)C(=O)N[C@@H](C)C(=O)N[C@@]1(C)CCCC=CCCC[C@@](C)(C(=O)N[C@@H](CCCCN)C(=O)N[C@@H](CCCCN)C(=O)N[C@@H](CC(C)C)C(=O)N[C@@H](CCCCN)C(=O)N[C@@H](CCCCN)C(=O)N[C@@H](CCCNC(=N)N)C(=O)O)NC(=O)[C@H](CS)NC(=O)[C@H]([C@@H](C)O)NC(=O)[C@H](Cc2ccccc2)NC1=O [S5, His-Leu-Met-Ala-S5-Phe-Thr-Cys-S5-Lys-Lys-Leu-Lys-Lys-Arg] (H-HLMA[S5]FTC[S5]KKLKKR-OH; staple 5-9; N-terminus and C-terminus assumed) | 8.575 | 0.3117 mL/cmH2O | 47.5 cmH2O./mL | 0.85 cmH2O · s/Ml | 0.738 mL | improved
7 | CSCC[C@H](NC(=O)[C@H](CC(C)C)NC(=O)[C@@H](N)Cc1c[nH]cn1)C(=O)N[C@@H](C)C(=O)N[C@@H](CS)C(=O)N[C@@]1(C)CCCC=CCCC[C@@](C)(C(=O)N[C@@H](CCCCN)C(=O)N[C@@H](CC(C)C)C(=O)N[C@@H](CCCCN)C(=O)N[C@@H](CCCCN)C(=O)N[C@@H](CCCNC(=N)N)C(=O)O)NC(=O)[C@H](C)NC(=O)[C@H](CS)NC(=O)[C@H]([C@@H](C)O)NC1=O [S6, His-Leu-Met-Ala-Cys-S5-Thr-Cys-Ala-S5-Lys-Leu-Lys-Lys-Arg] (H-HLMAC[S5]TCA[S5]KLKKR-OH; staple 6-10; N-terminus and C-terminus assumed) | 9.725 | 0.2683 mL/cmH2O | 52.17 cmH2O./mL | 1.067 cmH2O · s/Ml | 0.558 mL | improved
